Results: US12102695B2, “Half-curcuminoids as amyloid-beta pet imaging agents” (The General Hospital Corporation, priority 2016, dated 2024)

What was measured:
Aβ40 aggregates = molecular target: T1, Aβ40 aggregates (Homo sapiens, UniProt P05067); test: Binding constant (Kd) by fluorescence, Aβ aggregates; conditions: PBS pH 7.4
T1 construct: Synthetic Aβ peptides (1-40/42) were purchased from rPeptide; purchased rPeptide (Bogart, Ga.); host or cells: synthetic peptide
Description: (§1) Starting materials and solvents used in the Examples were purchased from commercial vendors and used without further purification, unless otherwise noted. The pH of the PBS buffer was 7.4. Column chromatography was performed on silica gel (SiliCycle Inc., 60 Å, […]) slurry packed into glass columns. Synthetic Aβ peptides (1-40/42) were purchased from rPeptide (Bogart, Ga., 30622). Aggregates for in vitro studies were generated by the slow stirring of Aβ40 in PBS buffer for 3 days at room temperature. CRANAD-101F (Example 1) was dissolved in DMSO to prepare a 25.0 μM stock solution. ^1H and ^13C NMR spectra were recorded at […] and 125 MHz, respectively, and reported in ppm downfield from tetramethylsilane (TMS). Fluorescence measurements were performed using an F-4500 fluorescence spectrophotometer (Hitachi). […]
(§2) To record the fluorescence response of CRANAD-101 with Aβs, the following procedure was used. Step 1: 1.0 mL of PBS buffer was added to a quartz cuvette as a blank control and its fluorescence was recorded with the same parameters as for CRANAD-101. Step 2: The fluorescence emission spectrum of a CRANAD-101 solution (1.0 mL, 250 nM) was recorded with excitation at 420 nm and emission from 450 to 800 nm. […] The emission spectra was recorded (Excitation=420 nm, Emission=450-800 nm). […]

Aβ42 oligomers = molecular target: T2, Aβ42 oligomers (Homo sapiens, UniProt P05067); test: Binding constant (Kd) by fluorescence, Aβ42 oligomers; conditions: PBS pH 7.4
T2 construct: Synthetic Aβ peptides (1-40/42) were purchased from rPeptide; purchased rPeptide (Bogart, Ga.); host or cells: synthetic peptide
Description: as §1, §2

Aβ42 dimers = molecular target: T3, Aβ42 dimers (Homo sapiens, UniProt P05067); test: Binding constant (Kd) by fluorescence, Aβ42 dimers; conditions: PBS pH 7.4
T3 construct: Synthetic Aβ peptides (1-40/42) were purchased from rPeptide; purchased rPeptide (Bogart, Ga.); host or cells: synthetic peptide
Description: as §1, §2

Aβ42 monomers = molecular target: T4, Aβ42 monomers (Homo sapiens, UniProt P05067); test: Binding constant (Kd) by fluorescence, Aβ42 monomers; conditions: PBS pH 7.4
T4 construct: Synthetic Aβ peptides (1-40/42) were purchased from rPeptide; purchased rPeptide (Bogart, Ga.); host or cells: synthetic peptide
Description: as §1, §2

[1] = tested on: Aβs, including monomers, dimers, oligomers, and aggregates; test: Fluorescence spectral testing with Aβs; type: binding; conditions: probe 250 nM, Aβ 250 nM, PBS, excitation 420 nm, FIG. 2
Description: (§3) To record the fluorescence response of CRANAD-101 with Aβs, the following procedure was used. Step 1: 1.0 mL of PBS buffer was added to a quartz cuvette as a blank control and its fluorescence was recorded with the same parameters as for CRANAD-101. Step 2: The fluorescence emission spectrum of a CRANAD-101 solution (1.0 mL, 250 nM) was recorded with excitation at 420 nm and emission from 450 to 800 nm. Step 3: To the CRANAD-101 solution from Step 2, 10 μL Aβs (25 μM) was added (final concentration 250 nM). The emission spectra was recorded (Excitation=420 nm, Emission=450-800 nm). The final spectra from Steps 2 and 3 were corrected using the blank control from Step 1.
(§4) The emission peak of CRANAD-101 was approximately 550 nm, and its excitation peak was approximately 420 nm. To confirm whether CRANAD-101 was responsive to Aβs, including monomers, dimers, oligomers, and aggregates, PBS buffer was used as a blank, CRANAD-101 (250 nM, final concentration) was added in PBS buffer and the fluorescence intensity was recorded. Next, Aβ monomer (250 nM, final concentration) was added, and the fluorescence intensity was recorded. The same procedure was then performed for Aβ dimers, Aβ oligomers, and Aβ aggregates. The binding constant (Kd) of CRANAD-101 was also measured for Aβs.

[2] = Fluorescence spectrum of the probe; type: physicochemical
Description: as §3, §4

Aβ plaques = test: Brain slice testing, fluorescence microscopy of APP/PS1 mouse brain slice; conditions: 11-month old APP/PS1 mouse slice, 25 μM, 30 minutes, FIG. 3A
Description: A brain slice of 11-month old APP/PS1 mouse was washed with double-distilled water for 5 minutes, then fixed with 4% formalin for 5 minutes, and washed with double-distilled water. First, a background image of a brain slice was taken using a fluorescence microscope. Next, an image was taken after the slice was incubated with CRANAD-101 (25 μM) for 30 minutes.

diffusible Aβ deposits = test: Fluorescence microscopy of AD patient brain slice; design: species or system human; conditions: FIG. 3D
Aβ = test: In vivo PET imaging, 14-month old APP/PS1 and WT mice; design: species or system mouse; conditions: i.v.
Description: In vivo PET imaging was conducted with 14-month old APP/PS1 mice (Charles River Laboratories, MA) and age-matched wild-type (WT) mice. Mice were injected via tail-vein with 100 μL of 20-30 μCi of [^18F]CRANAD-101 (Example 2) in 10% ethanol saline. MicroPET imaging experiments were performed on a Sophie Biosciences microPET G4 scanner (Culver City, Calif., USA). 60-Minute dynamic imaging was performed under general anesthesia (isoflurane/O2). Imaging analysis was conducted with Amide.
In vivo PET imaging was conducted with 14-month old APP/PS1 mice and age-matched WT mice. Mice were injected (i.v.) with 100 μL of 20-30 μCi of [^18F]CRANAD-101 in 10% ethanol saline. The specific activity was determined to be […] at the time of injection.

[3] = Two-photon microscopic imaging of wild type mouse (BBB penetration); type: in vivo; conditions: WT mouse
Description: (§5) To investigate whether CRANAD-101 was capable of penetrating brain blood barrier (BBB), two-photon microscopic imaging was conducted using a 15-month old wild type (WT) mouse. A mouse ([…]) was anesthetized with Ketamine/xylazine (70 mg/kg) and a cranial imaging window was surgically prepared. CRANAD-101 (2.0 mg/kg in a fresh solution containing 15% CREMOPHOR EL®, 15% DMSO and 70% PBS) was injected intravenously at time=0 min by a bolus injection during image acquisition. Two-photon fluorescence excitation was performed with a 900-nm laser (Prairie Ultima). Imaging was performed using a two-photon microscope (Prairie Technologies) equipped with a 20× water immersion objective (N.A. 1.0, Zeiss). Images were collected for 15 seconds per frame 512×512 μm matrix for 45 min with a green (500-550 nm) channel.

[4] = tested on: Aβ plaques and cerebral amyloid angiopathy (CAA); test: Two-photon microscopic imaging of APP/PS1 mouse; type: in vivo; conditions: 15-month old APP/PS1 mouse, FIG. 5B
Description: as §5
The accumulation of CRANAD-101 in the brain reached a peak at 10 minutes after i.v. injection (FIG. 5C, panel f). To examine whether CRANAD-101 could label Aβ plaques and cerebral amyloid angiopathy (CAA) in vivo, a similar two-photo microscopic imaging procedure was performed with a 15-month old APP/PS1 mouse.

T1 sequence (P05067 672-711 limits assumed): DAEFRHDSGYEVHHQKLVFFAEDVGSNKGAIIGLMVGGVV
T3 sequence (P05067 672-713 limits assumed): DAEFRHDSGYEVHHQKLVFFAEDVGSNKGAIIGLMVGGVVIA
T4 sequence (P05067 672-713 limits assumed): as above
T2 sequence (P05067 672-713 limits assumed): as above

## Cc1nn(-c2ccc(OCCCF)cc2)cc1C=CC1=CC(C2CCC2)=[O+][B-](F)(F)O1 [CRANAD-101, (E)-4-(2-(6-cyclobutyl-2,2-difluoro-2H-1,3,2^4-dioxaborinin-4-yl)vinyl)-1-(4-(3-fluoropropoxy)phenyl)-3-methyl-1H-pyrazole]
Aβ40 aggregates
  Kd: 188 ± 104 nM
Aβ42 oligomers
  Kd: 780 ± 173 nM
Aβ42 dimers
  Kd: 44 ± 18.9 nM
Aβ42 monomers
  Kd: 11.6 ± 11 nM
[1]
  fluorescence response to Aβs: strong responses to Aβs
[2]
  emission peak: approximately 550 nm
  excitation peak: approximately 420 nm
Aβ plaques
  staining of Aβ plaques in brain slice: Aβ plaques could be imaged after the incubation
Diffusible Aβ deposits
  staining of Aβ deposits in AD patient brain slice: can stain diffusible Aβ deposits
Aβ
  penetration of the blood-brain barrier and brain accumulation vs other reported 18F labeled curcumin analogues: much higher penetration of the blood-brain barrier (BBB) and brain accumulation
[3]; 2.0 mg/kg i.v., two-photon, FIG. 5A, 5C
  crossing of the BBB: quickly crossed the BBB
[3]; after i.v. injection 2.0 mg/kg, FIG. 5C panel f
  time of peak accumulation in the brain: 10 min
[4]
  labelling of Aβ plaques and CAA in vivo: clearly highlighted Aβ plaques and CAAs
